From US20140005163A1 (NOVARTIS AG, priority 2010, published 2014)

What was measured:
PI3K beta = molecular target: T1, PI3K beta (Homo sapiens, UniProt P42338); assay: PI3K beta kinase assay (Kinase-Glo luminescence); type: biochemical
T1 construct: for the full-length p110-b subunit are generated and fused by overlapping PCR; p85(iSH2) fusion partner (see partner chain) (N); His tag (C); made in house; host or cells: baculovirus; Tn5 (Trichoplusia ni) or TiniPro insect cells
Summary of the method: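 IC50 is derived by four-parameter logistic curve fitting of Kinase-Glo luminescence, which measures ATP left after a 60 min room-temperature reaction. Conditions are 25 nM His-tagged p85(iSH2)-p110β, 1 μM ATP and 10 μg/mL bovine liver phosphatidylinositol.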

PI3K gamma = molecular target: T2, PI3K gamma (Homo sapiens, UniProt P48736); assay: PI3K gamma kinase assay (Kinase-Glo luminescence); type: biochemical
T2 construct: His tag (C); made in house; host or cells: baculovirus (pVL1393); Tn5 or TiniPro insect cells; construct from Roger Williams lab, MRC LMB
T2 sequence (P48736 144-1102 limits assumed): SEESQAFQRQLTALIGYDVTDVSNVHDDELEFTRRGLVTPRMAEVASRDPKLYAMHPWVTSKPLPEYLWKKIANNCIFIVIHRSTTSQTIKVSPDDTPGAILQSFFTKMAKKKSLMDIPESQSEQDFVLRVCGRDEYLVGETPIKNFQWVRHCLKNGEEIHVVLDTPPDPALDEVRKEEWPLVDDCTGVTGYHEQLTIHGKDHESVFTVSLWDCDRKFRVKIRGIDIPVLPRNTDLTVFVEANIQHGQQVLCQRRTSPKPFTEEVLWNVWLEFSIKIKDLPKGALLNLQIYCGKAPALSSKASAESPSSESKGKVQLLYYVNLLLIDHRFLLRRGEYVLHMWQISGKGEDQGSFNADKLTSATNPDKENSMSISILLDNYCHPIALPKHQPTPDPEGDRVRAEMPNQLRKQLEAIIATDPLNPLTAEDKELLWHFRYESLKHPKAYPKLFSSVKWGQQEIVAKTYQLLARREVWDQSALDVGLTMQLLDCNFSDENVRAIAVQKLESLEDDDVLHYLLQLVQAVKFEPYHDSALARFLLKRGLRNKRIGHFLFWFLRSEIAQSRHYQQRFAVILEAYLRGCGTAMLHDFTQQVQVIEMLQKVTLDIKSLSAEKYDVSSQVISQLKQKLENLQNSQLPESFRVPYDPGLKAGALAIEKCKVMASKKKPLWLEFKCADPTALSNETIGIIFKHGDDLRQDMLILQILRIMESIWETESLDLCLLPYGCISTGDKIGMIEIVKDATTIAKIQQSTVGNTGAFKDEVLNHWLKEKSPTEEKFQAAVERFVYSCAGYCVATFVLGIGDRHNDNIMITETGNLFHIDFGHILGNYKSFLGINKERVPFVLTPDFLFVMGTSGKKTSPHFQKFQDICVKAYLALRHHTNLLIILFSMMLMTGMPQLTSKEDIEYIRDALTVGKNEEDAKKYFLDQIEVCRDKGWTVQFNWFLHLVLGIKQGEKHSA
Summary of the method: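 PI3Kγ (150 nM) reaction run 120 min at room temperature with phosphatidylinositol substrate (10 μg/mL) and ATP (1 μM) in Tris pH 7.5 buffer containing MgCl2, NaCl, CHAPS and DTT. Remaining ATP detected by Kinase-Glo luminescence; 8 concentrations per compound, IC50 from 4-parameter curve fitting.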

PI3K delta = molecular target: T3, PI3K delta (Homo sapiens, UniProt O00329); assay: PI3K delta kinase assay (Kinase-Glo luminescence); type: biochemical
T3 construct: for the full-length p110-d subunit are generated and fused by overlapping PCR; p85(iSH2) fusion partner (see partner chain) (N); His tag (C); made in house; host or cells: baculovirus; Tn5 (Trichoplusia ni) or TiniPro insect cells
T3 sequence (O00329 with tags, fused parts or gaps limits assumed): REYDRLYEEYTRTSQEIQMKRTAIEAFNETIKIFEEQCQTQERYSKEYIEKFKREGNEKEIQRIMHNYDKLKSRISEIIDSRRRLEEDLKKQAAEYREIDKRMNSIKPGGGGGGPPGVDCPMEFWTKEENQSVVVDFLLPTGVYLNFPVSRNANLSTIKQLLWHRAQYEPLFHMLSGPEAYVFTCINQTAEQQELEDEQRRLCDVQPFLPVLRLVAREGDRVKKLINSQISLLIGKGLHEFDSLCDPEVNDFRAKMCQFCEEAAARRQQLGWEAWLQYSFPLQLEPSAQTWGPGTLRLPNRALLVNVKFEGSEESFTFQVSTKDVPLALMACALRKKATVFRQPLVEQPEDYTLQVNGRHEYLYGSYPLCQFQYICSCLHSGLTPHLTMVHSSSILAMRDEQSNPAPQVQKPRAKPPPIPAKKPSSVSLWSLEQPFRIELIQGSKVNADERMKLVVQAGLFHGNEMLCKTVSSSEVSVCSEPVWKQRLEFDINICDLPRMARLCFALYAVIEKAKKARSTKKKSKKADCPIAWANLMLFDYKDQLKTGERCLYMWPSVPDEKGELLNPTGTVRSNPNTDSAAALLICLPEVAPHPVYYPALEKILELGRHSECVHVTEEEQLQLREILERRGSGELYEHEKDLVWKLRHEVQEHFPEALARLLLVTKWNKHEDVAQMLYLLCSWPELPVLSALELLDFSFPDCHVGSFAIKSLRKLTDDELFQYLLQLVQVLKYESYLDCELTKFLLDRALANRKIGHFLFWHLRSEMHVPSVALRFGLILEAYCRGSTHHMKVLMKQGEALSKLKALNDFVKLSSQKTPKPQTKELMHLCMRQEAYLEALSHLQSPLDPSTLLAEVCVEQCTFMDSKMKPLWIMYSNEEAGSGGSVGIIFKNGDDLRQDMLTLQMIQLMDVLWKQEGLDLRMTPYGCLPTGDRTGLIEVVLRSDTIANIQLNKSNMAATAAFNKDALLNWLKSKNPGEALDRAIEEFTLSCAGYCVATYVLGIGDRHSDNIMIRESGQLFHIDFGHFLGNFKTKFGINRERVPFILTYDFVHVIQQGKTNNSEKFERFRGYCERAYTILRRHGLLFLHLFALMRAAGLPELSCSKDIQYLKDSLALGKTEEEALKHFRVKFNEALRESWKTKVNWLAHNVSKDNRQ
Summary of the method: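 Inhibition is derived from luminescent detection of unconsumed ATP. The reaction runs for one hour at ambient temperature and contains the δ isoform fusion protein, phosphatidylinositol substrate and low (1 μM) ATP. Eight compound concentrations are tested in single, and a 4-parameter logistic model is used to calculate IC50.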

[1] = system: PKB Ser473 phosphorylation in Rat1-myr-HA-p110 beta cells; assay: Reverse protein array assay, PKB Ser473 phosphorylation in Rat1-myr-p110 beta cells; type: cell-based; details: 0.5 h, pAkt Ser473, 30 minutes incubation, read-out: p-PKB IC50
Summary of the method: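 Compound exposure lasted 30 min in Rat1 cells bearing membrane-targeted HA-p110 isoforms, using 8 serial concentrations. Arrayed lysates, each spotted at four dilutions, gave relative fluorescence signals for phospho-Ser473 PKB.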

T1 sequence (P42338 with tags, fused parts or gaps limits assumed): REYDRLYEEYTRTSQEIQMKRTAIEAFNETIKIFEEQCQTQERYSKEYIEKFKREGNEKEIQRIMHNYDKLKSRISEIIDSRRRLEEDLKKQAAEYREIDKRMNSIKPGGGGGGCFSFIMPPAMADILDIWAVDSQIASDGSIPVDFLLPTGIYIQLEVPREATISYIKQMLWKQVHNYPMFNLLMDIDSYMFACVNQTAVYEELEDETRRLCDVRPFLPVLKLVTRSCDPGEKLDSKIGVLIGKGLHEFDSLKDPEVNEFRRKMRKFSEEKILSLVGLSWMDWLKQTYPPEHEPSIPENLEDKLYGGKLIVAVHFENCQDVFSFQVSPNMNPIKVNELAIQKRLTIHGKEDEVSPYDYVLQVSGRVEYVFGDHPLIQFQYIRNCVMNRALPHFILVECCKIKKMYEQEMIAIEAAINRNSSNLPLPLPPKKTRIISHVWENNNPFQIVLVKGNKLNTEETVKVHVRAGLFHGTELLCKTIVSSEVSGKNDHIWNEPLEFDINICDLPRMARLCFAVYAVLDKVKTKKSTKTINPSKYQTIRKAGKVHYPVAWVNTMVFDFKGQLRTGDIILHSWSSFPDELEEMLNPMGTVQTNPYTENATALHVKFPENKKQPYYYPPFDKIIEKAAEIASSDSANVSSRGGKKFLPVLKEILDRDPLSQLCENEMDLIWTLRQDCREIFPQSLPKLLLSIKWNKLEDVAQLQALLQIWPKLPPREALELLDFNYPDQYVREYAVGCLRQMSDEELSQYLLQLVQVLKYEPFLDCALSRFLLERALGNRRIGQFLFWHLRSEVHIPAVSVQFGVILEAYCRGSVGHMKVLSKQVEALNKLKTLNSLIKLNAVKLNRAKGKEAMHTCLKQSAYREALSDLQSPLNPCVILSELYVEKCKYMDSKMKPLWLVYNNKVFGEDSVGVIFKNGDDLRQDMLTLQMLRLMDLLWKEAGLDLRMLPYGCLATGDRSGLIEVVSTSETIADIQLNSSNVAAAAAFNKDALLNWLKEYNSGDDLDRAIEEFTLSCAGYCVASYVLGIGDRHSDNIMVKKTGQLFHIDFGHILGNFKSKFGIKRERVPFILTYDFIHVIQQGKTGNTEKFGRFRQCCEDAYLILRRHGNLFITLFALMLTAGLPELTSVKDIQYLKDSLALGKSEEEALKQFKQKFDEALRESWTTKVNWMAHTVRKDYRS

SMILES	IC50 (PI3K beta) [nM]	IC50 (PI3K gamma) [nM]	IC50 (PI3K delta) [nM]	IC50 [1] [nM]
COc1ccc(-c2ccc3ncc4c(c3c2)n(-c2cn(C(C)C)nc2C)c(=O)n4C)cc1OC [Example 1.5, 8-(3,4-Dimethoxy-phenyl)-1-(1-isopropyl-3-methyl-1H-pyrazol-4-yl)-3-methyl-1,3-dihydro-imidazo[4,5-c]quinolin-2-one]	101	132	7	23
Cc1cc(-n2c(=O)n(C)c3cnc4ccc(-c5ccc(N(C)C)nc5)cc4c32)n(C)n1 [Example 4.6, 8-(6-Dimethylamino-pyridin-3-yl)-1-(2,5-dimethyl-2H-pyrazol-3-yl)-3-methyl-1,3-dihydro-imidazo[4,5-c]quinolin-2-one]	336	481	91	72
Cc1nn(C)cc1-n1c(=O)n(C)c2cnc3ccc(-c4ccc(N5CCC5)nc4)cc3c21 [Example 5.1, 8-(6-Azetidin-1-yl-pyridin-3-yl)-1-(1,3-dimethyl-1H-pyrazol-4-yl)-3-methyl-1,3-dihydro-imidazo[4,5-c]quinolin-2-one]	787	309	144	8
Cc1nn(C)cc1-n1c(=O)n(C)c2cnc3ccc(-c4ccc(C(N)=O)nc4)cc3c21 [Example 14, 5-[1-(1,3-Dimethyl-1H-pyrazol-4-yl)-3-methyl-2-oxo-2,3-dihydro-1H-imidazo[4,5-c]quinolin-8-yl]-pyridine-2-carboxylic acid amide]	130	212	34	18
Cc1cncc(-c2ccc3ncc4c(c3c2)n(-c2cn(C)nc2C)c(=O)n4C)c1 [Example 24, 1-(1,3-Dimethyl-1H-pyrazol-4-yl)-3-methyl-8-(5-methyl-pyridin-3-yl)-1,3-dihydro-imidazo[4,5-c]quinolin-2-one]	26	111	41	124
Cc1nn(C)cc1-n1c(=O)n(C)c2cnc3ccc(-c4cnc5ccccc5c4)cc3c21 [Example 38, 1-(1,3-Dimethyl-1H-pyrazol-4-yl)-3-methyl-8-quinolin-3-yl-1,3-dihydro-imidazo[4,5-c]quinolin-2-one]	40	123	7	9
Cc1nn(C)cc1-n1c(=O)n(C)c2cnc3ccc(-c4cccc(S(=O)(=O)N5CCCC5)c4)cc3c21 [Example 44, 1-(1,3-Dimethyl-1H-pyrazol-4-yl)-3-methyl-8-[3-(pyrrolidine-1-sulfonyl)-phenyl]-1,3-dihydro-imidazo[4,5-c]quinolin-2-one]	218	237	28	42
CCOc1ncc(-c2ccc3ncc4c(c3c2)n(-c2cn(C)nc2C)c(=O)n4C)cc1N(C)C(C)=O [Example 63, N-{5-[1-(1,3-Dimethyl-1H-pyrazol-4-yl)-3-methyl-2-oxo-2,3-dihydro-1H-imidazo[4,5-c]quinolin-8-yl]-2-ethoxy-pyridin-3-yl}-N-methyl-acetamide]	110	816	20	744
Cc1ncc(-c2ccc3ncc4c(c3c2)n(-c2cn(C)nc2C)c(=O)n4C)cc1NS(C)(=O)=O [Example 76, N-{5-[1-(1,3-Dimethyl-1H-pyrazol-4-yl)-3-methyl-2-oxo-2,3-dihydro-1H-imidazo[4,5-c]quinolin-8-yl]-2-methyl-pyridin-3-yl}-methanesulfonamide]	10	96	3	356
COC(=O)c1ccc(-c2ccc3ncc4c(c3c2)n(-c2cn(C)nc2C)c(=O)n4C)cn1 [Example 100, 5-[1-(1,3-Dimethyl-1H-pyrazol-4-yl)-3-methyl-2-oxo-2,3-dihydro-1H-imidazo[4,5-c]quinolin-8-yl]-pyridine-2-carboxylic acid methyl ester]	140	287	94	14
COCc1ccc(-c2ccc3ncc4c(c3c2)n(-c2cn(C(C)C)nc2C)c(=O)n4C)cn1 [Example 105, 1-(1-Isopropyl-3-methyl-1H-pyrazol-4-yl)-8-(6-methoxymethyl-pyridin-3-yl)-3-methyl-1,3-dihydro-imidazo[4,5-c]quinolin-2-one]	163	310	52	41
Cc1nn(C)cc1-n1c(=O)n(C)c2cnc3ccc(-c4ccc(OCCCO)nc4)cc3c21 [Example 108, 1-(1,3-Dimethyl-1H-pyrazol-4-yl)-8-[6-(3-hydroxy-propoxy)-pyridin-3-yl]-3-methyl-1,3-dihydro-imidazo[4,5-c]quinolin-2-one]	–	535	556	128
COc1ccc(-c2ccc3ncc4[nH]c(=O)n(-c5cn(C)nc5C)c4c3c2)cn1 [Example 109, 1-(1,3-Dimethyl-1H-pyrazol-4-yl)-8-(6-methoxy-pyridin-3-yl)-1,3-dihydro-imidazo[4,5-c]quinolin-2-one]	38	286	19	89
CCn1c(=O)n(-c2cn(C)nc2C)c2c3cc(-c4cncc(N)c4)ccc3ncc21 [Example 245, 8-(5-Amino-pyridin-3-yl)-1-(1,3-dimethyl-1H-pyrazol-4-yl)-3-ethyl-1,3-dihydro-imidazo[4,5-c]quinolin-2-one]	162	–	30	386

Next, values leading:

IC50 (PI3K beta) [nM]	IC50 (PI3K gamma) [nM]	IC50 (PI3K delta) [nM]	IC50 [1] [nM]	SMILES
988	548	821	530	CNC(=O)c1ccc(-c2ccc3ncc4c(c3c2)n(-c2c(C)nn(C)c2C)c(=O)n4C)cn1 [Example 15.2, 5-[3-Methyl-2-oxo-1-(1,3,5-trimethyl-1H-pyrazo1-4-yl)-2,3-dihydro-1H-imidazo[4,5-c]quinolin-8-yl]-pyridine-2-carboxylic acid methylamide]
173	137	50	389	CCOc1ccc(-c2ccc3ncc4c(c3c2)n(-c2c(C)nn(C)c2C)c(=O)n4C)cc1OCC [Example 27.2, 8-(3,4-Diethoxy-phenyl)-3-methyl-1-(1,3,5-trimethyl-1H-pyrazol-4-yl)-1,3-dihydro-imidazo[4,5-c]quinolin-2-one]
57	69	27	93	CCOc1ccc(-c2ccc3ncc4c(c3c2)n(-c2cn(CC)nc2C)c(=O)n4C)cc1OC [Example 29.1, 8-(4-Ethoxy-3-methoxy-phenyl)-1-(1-ethyl-3-methyl-1H-pyrazol-4-yl)-3-methyl-1,3-dihydro-imidazo[4,5-c]quinolin-2-one]
–	213	118	< 5	Cc1nn(C)cc1-n1c(=O)n(C)c2cnc3ccc(-c4ccc(-n5cccn5)cc4)cc3c21 [Example 51.1, 1-(1,3-Dimethyl-1H-pyrazol-4-yl)-3-methyl-8-(4-pyrazol-1-yl-phenyl)-1,3-dihydro-imidazo[4,5-c]quinolin-2-one]
317	199	121	409	CCOc1cncc(-c2ccc3ncc4c(c3c2)n(-c2cn(CC(=O)N(C)C)nc2C)c(=O)n4C)c1 [Example 56.2, 2-{4-[8-(5-Ethoxy-pyridin-3-yl)-3-methyl-2-oxo-2,3-dihydro-imidazo[4,5-c]quinolin-1-yl]-3-methyl-pyrazol-1-yl}-N,N-dimethyl-acetamide]
